Among the data in paper PMC12509308, “Stereochemistry and Charged State Influence Effector Outcomes of D‑2-Hydroxyglutarate Dehydrogenase Ligands” (Biochemistry, 2025) are Ki, Km and kcat values, retold here.

First the molecules themselves.
T1: PaD2HGDH (Pseudomonas aeruginosa, UniProt Q9I6H4)
T1 construct: gene PA0317; full-length wild type, C-terminal 6x-His tag kept, pET20b(+), expressed in E. coli Rosetta(DE3)pLysS, Ni-NTA purified
T1 sequence (Q9I6H4 1-464): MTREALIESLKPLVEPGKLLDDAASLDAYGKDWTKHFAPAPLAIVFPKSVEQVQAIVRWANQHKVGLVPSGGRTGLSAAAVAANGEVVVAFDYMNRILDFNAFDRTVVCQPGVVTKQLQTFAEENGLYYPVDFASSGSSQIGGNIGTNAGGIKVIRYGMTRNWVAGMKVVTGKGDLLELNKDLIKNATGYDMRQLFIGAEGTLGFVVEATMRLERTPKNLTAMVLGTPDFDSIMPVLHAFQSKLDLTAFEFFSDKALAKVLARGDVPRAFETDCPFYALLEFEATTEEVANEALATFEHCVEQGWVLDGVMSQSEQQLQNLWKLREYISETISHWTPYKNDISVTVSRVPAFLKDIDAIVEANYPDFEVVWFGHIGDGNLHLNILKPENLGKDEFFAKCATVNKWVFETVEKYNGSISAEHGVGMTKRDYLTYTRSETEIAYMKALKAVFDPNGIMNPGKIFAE

B1: PaD2HGDH (Pseudomonas aeruginosa PAO1) (protein)
chain: MTREALIESLKPLVEPGKLLDDAASLDAYGKDWTKHFAPAPLAIVFPKSVEQVQAIVRWANQHKVGLVPSGGRTGLSAAAVAANGEVVVAFDYMNRILDFNAFDRTVVCQPGVVTKQLQTFAEENGLYYPVDFASSGSSQIGGNIGTNAGGIKVIRYGMTRNWVAGMKVVTGKGDLLELNKDLIKNATGYDMRQLFIGAEGTLGFVVEATMRLERTPKNLTAMVLGTPDFDSIMPVLHAFQSKLDLTAFEFFSDKALAKVLARGDVPRAFETDCPFYALLEFEATTEEVANEALATFEHCVEQGWVLDGVMSQSEQQLQNLWKLREYISETISHWTPYKNDISVTVSRVPAFLKDIDAIVEANYPDFEVVWFGHIGDGNLHLNILKPENLGKDEFFAKCATVNKWVFETVEKYNGSISAEHGVGMTKRDYLTYTRSETEIAYMKALKAVFDPNGIMNPGKIFAE
notes: full-length wild type, C-terminal 6x-His tag kept, pET20b(+), expressed in E. coli Rosetta(DE3)pLysS, Ni-NTA purified

The target of one data set is T1, PaD2HGDH. The data set can be described thus: PMS-driven oxygen consumption, initial rates, steady-state inhibition. It is filed as biochemical. The settings on record: read-out: Kis. From the text: PMS-driven oxygen consumption, initial rates, steady-state inhibition on PaD2HGDH
On to `O=C(O)C(O)c1ccc(O)c(O)c1` (racemic) [D/L-3,4-Dihydroxymandelate], for which the Ki is 4.1 ± 0.3 mM. On the same count and under the same terms, the value for `O=C(O)C(O)c1ccc(O)cc1` (racemic) [D/L-4-Hydroxymandelate] was 6.5 ± 0.7 mM.

In the case of `O=C(O)CC(C(=O)O)C(O)C(=O)O` (racemic) [D/L-Isocitrate], the Ki worked out at 7.8 ± 0.4 mM. The same measure, in the same setting: the value for `O=C(O)CCC(=O)C(=O)O` [2-Ketoglutarate] was 4.3 ± 0.3 mM; that for `O=C(O)[C@H](O)c1ccccc1` [D-Mandelate] was 18.4 ± 0.6 mM; that for `O=C(O)CC[C@H](O)C(=O)O` [L-2-Hydroxyglutarate] was 4.1 ± 0.4 mM.

As for `O=C(O)C[C@H](O)C(=O)O` [L-Malate], the Ki was found to be 14.6 ± 1.5 mM. Still for that read-out and setting: the value for `O=C(O)CC(=O)C(=O)O` [Oxaloacetate] was 2.02 ± 0.03 mM; that for `O=C(O)C(O)C(=O)O` [Tartronate] was 18.6 ± 1.3 mM.

Substrate in the next data set: O=C(O)C[C@@H](O)C(=O)O
The data set can be described thus: PMS-driven oxygen consumption, initial rates, global fit of inhibition data. In kind it is biochemical, Pseudomonas aeruginosa. The note with it: fitted in the oxaloacetate inhibition assay (Ka extrapolated to no inhibitor), D-malate 1-60 mM, 1 mM PMS, 25 mM NaPO4 pH 7.4, 25 °C. An excerpt: PMS-driven oxygen consumption, initial rates, global fit of inhibition data on PaD2HGDH
As for B1, the Km (usually the concentration of substrate that gives half-maximal velocity) was 8.4 ± 0.1 mM and the kcat (as a rule, the maximal rate divided by the concentration of active sites) was 29.1 ± 0.1 s⁻¹.
